PMC12567349, “Design and Optimization of Spiro-Isatin-Thiazolidinone Hybrids with Promising Anticancer Activity” (Pharmaceuticals, 2025)

Columns and labels:
HCT116 cells = assay: MTT assay, 72 h, HCT116; format: cell-based; conditions: Homo sapiens, HCT-116, mean ± SD
Description: (§1) The cytotoxic potential of the synthesized compounds was investigated using the MTT assay after 72 h incubation with a panel of human and murine cancer cell lines, including colorectal carcinoma (HCT116), estrogen receptor-positive breast adenocarcinoma (MCF-7), triple-negative breast adenocarcinoma (MDA-MB-231), epidermoid carcinoma (KB3-1), myeloid leukemia (K562), and glioblastoma (U373), and mouse breast carcinoma (4T1) cells. To assess the selectivity of the compounds, pseudo-normal cell lines—human keratinocytes (HaCaTs) and mouse fibroblasts (NIH3T3s)—were also tested under the same conditions.
(§2) Human breast adenocarcinoma cells of MCF-7 and MDA-MB-231 lines, human glioblastoma cells of U373 line, human chronic myelogenous leukemia cells of K562 line, human colorectal carcinoma cells of HCT116 line, and human epidermoid carcinoma cells of KB3-1 line were kindly donated by a Collection of the Institute for Cancer Research at Vienna Medical University (Vienna, Austria). Human keratinocytes of HaCaT line, murine breast carcinoma cells of 4T1 line, and murine fibroblasts of the NIH3T3 line were obtained from the Cell Collection of the R.E. Kavetsky Institute of Experimental Pathology, Oncology and Radiobiology of the National Academy of Sciences of Ukraine (Kyiv, Ukraine). MCF-7, MDA-MB-231, U373, K562, HaCaT, and NIH3T3 cells were cultured in DMEM medium (Sigma-Aldrich, Burlington, MA, USA) supplemented with 2 mM L-glutamine, 4500 mg/L glucose, and 1 mM sodium pyruvate. HCT116 and KB3-1 cells were maintained in RPMI-1640 medium supplemented with 2 mM L-glutamine (Sigma-Aldrich, USA). Both media were supplemented with 10% fetal bovine serum (Sigma-Aldrich, USA). All cell lines were incubated at 37 °C in a humidified atmosphere containing 5% CO2.
(§3) The substrate cells were seeded at a density of 5000 cells per 100 µL, while suspension K562 cells were seeded at 15,000 cells per 100 µL in 96-well plates and incubated overnight. Doxorubicin (Dox, Sigma-Aldrich, USA) was used as a reference drug. Studied substances were then added in 100 µL of culture medium, and the cells were further incubated for 72 h. Subsequently, 20 µL of MTT solution (5 mg/mL, Sigma-Aldrich, USA) was added to each well and incubated for 2–4 h. Formazan crystals were then solubilized by adding dimethyl sulfoxide (Sigma-Aldrich, USA). Absorbance was measured using a BioTek ELx800 Absorbance Reader (BioTek Instruments, Inc., Winooski, VT, USA). The results were analyzed and illustrated using GraphPad Prism (version 8.0.1; GraphPad Software, San Diego, CA, USA) and presented as a mean (M) ± standard deviation (SD). The IC50 values of the compounds were determined using nonlinear regression analysis in GraphPad Prism 10.4.2 [40].

MCF-7 cells = assay: MTT assay, 72 h, MCF-7; format: cell-based; conditions: Homo sapiens, MCF7, mean ± SD
Description: as §1, §2
as §3, with “Doxorubicin (Dox, Sigma-Aldrich, USA) was used as a reference drug.” left out

MDA-MB-231 cells = assay: MTT assay, 72 h, MDA-MB-231; format: cell-based; conditions: Homo sapiens, mean ± SD
Description: as §1, §2, §3

4T1 cells = assay: MTT assay, 72 h, 4T1; format: cell-based; conditions: Mus musculus, mean ± SD
Description: as §1, §2, §3

KB3-1 cells = assay: MTT assay, 72 h, KB3-1; format: cell-based; conditions: Homo sapiens, KB 3-1, mean ± SD
Description: as §1, §2, §3

K562 cells = assay: MTT assay, 72 h, K562; format: cell-based; conditions: Homo sapiens, mean ± SD
Description: as §1, §2, §3

U373 cells = assay: MTT assay, 72 h, U373; format: cell-based; conditions: Homo sapiens, U373 MG, mean ± SD
Description: as §1, §2, §3

HaCaT cells = assay: MTT assay, 72 h, HaCaT (pseudo-normal); format: cell-based; conditions: Homo sapiens, mean ± SD
Description: as §1, §2, §3

NIH3T3 cells = assay: MTT assay, 72 h, NIH3T3 (pseudo-normal); format: cell-based; conditions: Mus musculus, mean ± SD
Description: as §1, §2, §3

cancer cell lines = assay: MTT assay, panel of cancer cell lines; format: cell-based; conditions: 72 h, summary over the cancer cell panel, read-out: IC50 for most cancer lines
Description: as §1, §3

[1] = system: p53 expression in normal BJ cells; parameters: method as in PMID 38920636; conditions: normal BJ cells ref 34; cited from earlier work
[2] = system: p53 expression in A549 lung cancer cells; parameters: method as in PMID 38920636; conditions: A549 lung cancer cells ref 34; cited from earlier work
PPARγ = system: PPARγ; parameters: method as in PMID 38920636; conditions: cited from earlier work

Row | IC50 (HCT116 cells) | IC50 (MCF-7 cells) | IC50 (MDA-MB-231 cells) | IC50 (4T1 cells) | IC50 (K562 cells) | IC50 (cancer cell lines) | Structure (SMILES) | IC50 (KB3-1 cells) | IC50 (U373 cells) | IC50 (HaCaT cells) | IC50 (NIH3T3 cells) | p53 expression [1] | p53 expression [2] | PPARγ modulation (PPARγ)
1 | > 100 µM | > 100 µM | > 100 µM | > 100 µM | > 100 µM | > 100 µM | COc1ccc(N2C(=O)/C(=C/c3ccc(N4CCOCC4)cc3)SC23C(=O)Nc2ccc(Cl)cc23)cc1 (stereo not drawn) [Compound 8, (Z)-5-Chloro-3′-(4-methoxyphenyl)-5′-(4-morpholinobenzylidene)spiro[indoline-3,2′-thiazolidine]-2,4′-dione] | 75.9 ± 4.21 µM | > 100 µM | > 100 µM | > 100 µM |  |  | 
2 |  |  |  |  |  |  | CC(C)c1ccc(/C=C2\SC3(C(=O)Nc4ccccc43)N(c3ccc(Cl)cc3)C2=O)cc1 (stereo not drawn) [Les-3467] |  |  |  |  | increasing its levels | decreasing it | acts as a PPARγ modulator
3 | 8.37 ± 0.51 µM | 6.99 ± 0.16 µM | 6.67 ± 0.15 µM | 46.7 ± 1.19 µM | 37.4 ± 0.49 µM | 6.67 to 8.37 µM | CC(C)(C)c1ccc(/C=C2\SC3(C(=O)Nc4ccc(F)cc43)N(Cc3ccccc3)C2=O)cc1 (stereo not drawn) [Compound 18, (Z)-3′-Benzyl-5′-(4-(tert-butyl)benzylidene)-5-fluorospiro[indoline-3,2′-thiazolidine]-2,4′-dione] | 7.92 ± 0.65 µM | 29.8 ± 0.35 µM | > 100 µM | 98.39 ± 0.66 µM |  |  | 
4 | > 100 µM | > 100 µM | 60.2 ± 0.62 µM | > 100 µM | > 100 µM | > 100 µM | CCOc1ccc(/C=C2\SC3(C(=O)Nc4ccc(Br)cc43)N(c3ccc(Br)cc3)C2=O)cc1 (stereo not drawn) [Compound 14, (Z)-5-Bromo-3′-(4-bromophenyl)-5′-(4-ethoxybenzylidene)spiro[indoline-3,2′-thiazolidine]-2,4′-dione] | 19.6 ± 0.23 µM | 89.52 ± 0.81 µM | > 100 µM | > 100 µM |  |  | 
5 | 41.4 ± 0.62 µM | > 100 µM | > 100 µM | > 100 µM | 5.55 ± 0.17 µM |  | O=C1/C(=C/c2ccc(-c3ccccn3)cc2)SC2(C(=O)Nc3ccc(Cl)cc32)N1c1ccc(Cl)cc1 (stereo not drawn) [Compound 13, (Z)-5-Chloro-3′-(4-chlorophenyl)-5′-(4-(pyridin-2-yl)benzylidene)spiro[indoline-3,2′-thiazolidine]-2,4′-dione] | 0.99 ± 0.08 µM | > 100 µM | > 100 µM | > 100 µM |  |  | 
6 | 8.24 ± 0.26 µM | 6.64 ± 0.39 µM | 13.5 ± 2.21 µM | 66 ± 4.48 µM | 67.9 ± 0.81 µM |  | CC(C)(C)c1ccc(/C=C2\SC3(C(=O)Nc4ccc(Cl)cc43)N(Cc3ccccc3)C2=O)cc1 (stereo not drawn) [Compound 17, (Z)-3′-Benzyl-5′-(4-(tert-butyl)benzylidene)-5-chlorospiro[indoline-3,2′-thiazolidine]-2,4′-dione] | 5.85 ± 0.42 µM | 32.26 ± 0.25 µM | 10.6 ± 0.21 µM | 91 ± 1.34 µM |  |  | 
